Source: PubChem BioAssay (NCI)
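Cultured in 96-well plates, cells were exposed to test compound for 48 hours across five concentrations. The concentration for 50% growth inhibition is given as GI50. TGI marks complete inhibition of growth.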

What was measured:
Assay in all cases: NCI anticancer screen, dose series, 48 h
[1] = tested on: BT-549 breast
[2] = tested on: MDA-MB-231 breast
[3] = tested on: MCF7 breast
[4] = tested on: UO-31 renal
[5] = tested on: HOP-92 NSCLC
[6] = tested on: DU-145 prostate
[7] = tested on: M19-MEL melanoma
[8] = tested on: A498 renal
[9] = tested on: OVCAR-3 ovarian
[10] = tested on: HOP-18 NSCLC

## [CH3][Sn]([CH3])([CH3])[O]C(=O)C(O)c1ccccc1 (centres undefined)
[1]
  GI50: 17.9 µM
  TGI: > 100 µM
[2]
  GI50: 39.2 µM
  TGI: > 100 µM
[3]
  GI50: > 100 µM
  TGI: > 100 µM
[4]
  GI50: 4.16 µM
  TGI: 31.5 µM
[5]
  GI50: 2.91 µM
  TGI: 14.4 µM
[6]
  GI50: 6.18 µM
  TGI: > 100 µM
[7]
  GI50: 3.31 µM
  TGI: 9.6 µM
[8]
  GI50: 13.8 µM
  TGI: 63.9 µM
[9]
  GI50: 5.38 µM
  TGI: 66.2 µM
[10]
  GI50: > 100 µM
  TGI: > 100 µM

## O=C1C=CC(=O)c2c1cc1ccccc1c2O
[1]
  TGI: 21.6 µM
[2]
  TGI: 4.25 µM
[4]
  TGI: 9.11 µM
[5]
  TGI: 3.61 µM
[6]
  TGI: 28.3 µM
[7]
  TGI: 11.3 µM
[8]
  TGI: 28.8 µM
[9]
  TGI: 4.8 µM
[10]
  TGI: 32.3 µM

## CCOc1ccc(/C=N\N2C(=O)c3ccccc3C2=O)cc1
[4]
  TGI: > 100 µM
[5]
  TGI: > 100 µM
[7]
  TGI: > 100 µM
[8]
  TGI: > 100 µM
[9]
  TGI: > 100 µM
[10]
  TGI: > 100 µM

## Cc1ccc(C)c(NC(=O)C(=O)CC(=O)c2cccc3ccccc23)c1
[4]
  TGI: > 100 µM
[5]
  TGI: > 100 µM
[7]
  TGI: > 100 µM
[8]
  TGI: > 100 µM
[9]
  TGI: > 100 µM
[10]
  TGI: > 100 µM

## CCOC(=O)C/C(N)=C(\C#N)C(=O)OCC
[4]
  TGI: > 100 µM
[5]
  TGI: > 100 µM
[7]
  TGI: > 100 µM
[8]
  TGI: > 100 µM
[9]
  TGI: > 100 µM
[10]
  TGI: > 100 µM

## COc1ccc(/C=c2\sc3nnc(CCC(=O)Nc4cccc(C(F)(F)F)c4)n3c2=O)cc1
[4]
  TGI: > 100 µM
[5]
  TGI: > 100 µM
[7]
  TGI: > 100 µM
[8]
  TGI: > 100 µM
[9]
  TGI: > 100 µM
[10]
  TGI: > 100 µM

## COC(=O)CSc1n[nH]c(-c2ccccc2)n1
[4]
  TGI: > 100 µM
[5]
  TGI: > 100 µM
[7]
  TGI: > 100 µM
[8]
  TGI: > 100 µM
[9]
  TGI: > 100 µM
[10]
  TGI: > 100 µM
